We go through one compound from PMC7591906, “pHLIP ICG for delineation of tumors and blood flow during fluorescence-guided surgery” (Scientific Reports, 2020).

Peptide text beside a SMILES is read from it. * marks the point of attachment. X1 = CC1(C)C(/C=C/C=C/C=C/C=C2/N(CCCCCC(=O)NCCN3C(=O)CC(*)C3=O)c3ccc4ccccc4c3C2(C)C)=[N+](CCCCS(=O)(=O)[O-])c2ccc3ccccc3c21

The target in one data set is T1, progesterone receptor B (Homo sapiens, UniProt P06401).
T1 construct: purchased Eurofins Panlabs, Inc
T1 sequence (P06401 1-933): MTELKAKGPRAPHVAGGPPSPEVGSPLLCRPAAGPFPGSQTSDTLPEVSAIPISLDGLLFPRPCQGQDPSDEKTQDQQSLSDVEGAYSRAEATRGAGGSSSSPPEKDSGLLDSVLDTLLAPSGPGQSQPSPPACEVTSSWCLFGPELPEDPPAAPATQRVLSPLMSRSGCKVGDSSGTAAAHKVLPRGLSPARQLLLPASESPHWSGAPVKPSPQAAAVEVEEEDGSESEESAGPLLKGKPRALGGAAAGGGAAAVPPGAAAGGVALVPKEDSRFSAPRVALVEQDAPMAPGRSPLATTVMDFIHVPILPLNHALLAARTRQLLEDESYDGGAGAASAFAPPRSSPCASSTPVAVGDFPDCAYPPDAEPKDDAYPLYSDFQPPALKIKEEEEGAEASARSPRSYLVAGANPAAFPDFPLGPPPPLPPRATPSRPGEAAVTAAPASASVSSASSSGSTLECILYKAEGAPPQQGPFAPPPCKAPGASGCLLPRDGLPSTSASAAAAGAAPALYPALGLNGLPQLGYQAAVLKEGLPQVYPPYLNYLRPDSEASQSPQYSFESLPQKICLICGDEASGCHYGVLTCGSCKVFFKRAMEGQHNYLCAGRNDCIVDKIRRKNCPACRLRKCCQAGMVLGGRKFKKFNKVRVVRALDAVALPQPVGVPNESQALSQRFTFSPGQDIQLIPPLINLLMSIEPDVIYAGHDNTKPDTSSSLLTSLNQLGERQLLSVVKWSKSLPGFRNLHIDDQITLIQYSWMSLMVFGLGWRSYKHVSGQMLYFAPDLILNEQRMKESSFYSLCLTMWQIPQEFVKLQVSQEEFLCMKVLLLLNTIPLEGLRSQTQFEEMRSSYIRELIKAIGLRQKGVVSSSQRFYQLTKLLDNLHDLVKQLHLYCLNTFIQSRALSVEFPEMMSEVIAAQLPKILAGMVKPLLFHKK
Briefly: Progesterone receptor B radioligand binding assay. As to the method:
The pHLIP ICG enzyme binding assays were performed by Eurofins Panlabs, Inc. according to standard assay protocols. The following enzymes were used in the binding assay with 2 µM of pHLIP ICG : acetyl cholinesterase; peptidase (angiotensin converting enzyme); ATPase (Na^+/K^+, pig heart); CTSG peptidase (cathepsin G); cyclooxygenases COX-1 and COX-2; monoamine oxidases MAO-A and MAO-B; phosphodiesterases PDE3 and PDE4D2; protein tyrosine kinase (insulin receptor); protein tyrosine kinase (LCK); protein serine/threonine kinase (PKC, non-selective); adenosine A1 and A2A; adenosine transporter; adrenergic α1A, α1B, α1D, α2A, α2B, β1 and β2; norepinephrine transporter (NET); androgen (testosterone); angiotensin AT1; bradykinin B2; calcium channels L-type (benzothiazepine, dihydropyridine, phenylalkylamine); calcium channel N-type; cannabinoid CB1 and CB2; chemokine CCR1; cholecystokinin CCK1 (CCKA) and CCK2 (CCKB); dopamine D1, D2L and D2S; dopamine transporter (DAT); endothelin ETA; estrogen ERα; GABA transporter; GABAAs (flunitrazepam, central; Ro-15-1788, hippocampus and chloride channel, TBOB); glucocorticoid; glutamate (AMPA, kainate, agonism NMDA, glycine NMDA, phencyclidine NMDA, polyamine NMDA, and mGlu5 metabotropic); glycine (strychnine-sensitive); histamine H1 and H2; chemokine CXCR2 (IL-8RB); cysteinyl leukotriene (CysLT1); melanocortin MC1 and MC4; muscarinic M1, M2, M3, and M4; tachykinin NK1; neuropeptide Y Y1; nicotinic acetylcholine α1 (bungarotoxin) and α3β4; opiate δ1 (OP1, DOP), κ (OP2, KOP), and μ (OP3, MOP); platelet activating factor (PAF); potassium channels (KATP and hERG); PPARγ; serotonin (5-hydroxytryptamine) 5-HT1A, 5-HT1B, 5-HT2A, 5-HT2B, 5-HT2C, and 5-HT3; serotonin transporter (SERT); sodium channel (site 2); vasopressin V1A; progesterone (PR-B). The most significant inhibitory effect of pHLIP ICG was observed on progesterone B and was followed by an additional study to identify IC50 values, which were determined by a non-linear least square regression analysis using MathIQTM (ID Business Solutions Ltd., UK). The Ki values were calculated by the equation from Cheng and Prusoff [Cheng, Y., Prusoff, W.H., Biochem. Pharmacol. 22:3099-3108, 1973] using the observed IC50 of pHLIP ICG , the concentration of radioligand employed in the assay, and the historical values for the KD of the ligand (Eurofins Panlabs data). The Hill coefficient (nH), defining the slope of the competitive binding curve, was calculated using MathIQTM. The IC50, Ki, and nH values were established for pHLIP ICG and compared to the known progesterone agonist, R-2050 (Figure S3).
Figure SI,3. […]

A short description of data set [1]: Pharmacological safety assessment on the central nervous system (FOB) in rats (GLP). To be noted: single i.v. bolus 0.218, 0.248, 3.72 and 7.44 mg/kg, up to 24 h post-dose. It is filed as in vivo, Sprague Dawley rats. As to the method: The objective of this GLP study performed at CRL was to evaluate the pharmacological effects of pHLIP ICG on the central nervous system following a single i.v. bolus injection in rats.
Functional observation battery (FOB) tests were performed once prior to dosing and again at 5 minutes, 3 and 24 hours post-dose and included the following assessments: palpebral closure, eye prominence, pupil size, pupillary response, lacrimation, salivation, body tone, extensor thrust, pinna reflex, tactile reflex, overall animal reactivity, auricular startle, air righting reflex, body temperature (rectal). Additional evaluations consisted of mortality and clinical observations.

At progesterone receptor B, `CC(C)C[C@H](NC(=O)[C@H](Cc1ccc(O)cc1)NC(=O)[C@H](C)NC(=O)[C@H](CCCNC(=N)N)NC(=O)[C@H](Cc1c[nH]c2ccccc12)NC(=O)[C@@H]1CCCN1C(=O)[C@H](CC(N)=O)NC(=O)[C@H](CCC(N)=O)NC(=O)[C@H](CC(=O)O)NC(=O)[C@H](CC(=O)O)NC(=O)[C@H](CSC1CC(=O)N(CCNC(=O)CCCCCN2/C(=C/C=C/C=C/C=C/C3=[N+](CCCCS(=O)(=O)[O-])c4ccc5ccccc5c4C3(C)C)C(C)(C)c3c2ccc2ccccc32)C1=O)NC(=O)[C@H](C)N)C(=O)N[C@@H](CC(=O)O)C(=O)N[C@@H](CC(C)C)C(=O)N[C@@H](CC(C)C)C(=O)N[C@@H](Cc1ccccc1)C(=O)N1CCC[C@H]1C(=O)N[C@H](C(=O)N[C@@H](CC(=O)O)C(=O)N[C@H](C(=O)N[C@@H](CC(C)C)C(=O)N[C@@H](CC(C)C)C(=O)N[C@@H](CC(C)C)C(=O)N[C@@H](CC(=O)O)C(=O)N[C@@H](CC(C)C)C(=O)N[C@@H](CC(C)C)C(=O)N[C@@H](Cc1c[nH]c2ccccc12)C(=O)N[C@@H](C)C(=O)O)[C@@H](C)O)[C@@H](C)O` (stereo partly drawn) [pHLIP ICG] (H-AC(X1)DDQNPWRAYLDLLFPTDTLLLDLLWA-OH) registered an IC50 of 640 nM and an inhibition constant (Ki) of 510 nM. In addition, the “Effect on the central nervous system (FOB)” value in data set [1] was “had no observed effect on the central nervous system”.
